The numbers were not newly measured in patent US20250345266A1, “READY-TO-INFUSE OXYTOCIN COMPOSITIONS” (AMNEAL PHARMACEUTICALS LLC, priority 2024, published 2025), which cites them from elsewhere.

Turning to `CC[C@H](C)[C@@H]1NC(=O)[C@H](Cc2ccc(O)cc2)NC(=O)[C@@H](N)CSSC[C@@H](C(=O)N2CCC[C@H]2C(=O)N[C@@H](CC(C)C)C(=O)NCC(N)=O)NC(=O)[C@H](CC(N)=O)NC(=O)[C@H](CCC(N)=O)NC1=O` [Oxytocin], the half-life result is recorded as “about 3 minutes”.
